Where a name gives a salt, the structure may show the parent alone. Marks after values point to notes of the source that are not given here.
Assays:
COX-1 = molecular target: T1, COX-1 (Ovis aries, UniProt P05979); assay: COX-1 inhibition, COX (ovine/human) inhibitor screening assay kit; type: biochemical; details: for inhibition at 50 µM: at 50 µM compound final concentration, read-out: COX-1 % inhib.
T1 construct: purchased Cayman Chemicals (bought through Sigma-Aldrich) 560131
T1 sequence (P05979 25-600): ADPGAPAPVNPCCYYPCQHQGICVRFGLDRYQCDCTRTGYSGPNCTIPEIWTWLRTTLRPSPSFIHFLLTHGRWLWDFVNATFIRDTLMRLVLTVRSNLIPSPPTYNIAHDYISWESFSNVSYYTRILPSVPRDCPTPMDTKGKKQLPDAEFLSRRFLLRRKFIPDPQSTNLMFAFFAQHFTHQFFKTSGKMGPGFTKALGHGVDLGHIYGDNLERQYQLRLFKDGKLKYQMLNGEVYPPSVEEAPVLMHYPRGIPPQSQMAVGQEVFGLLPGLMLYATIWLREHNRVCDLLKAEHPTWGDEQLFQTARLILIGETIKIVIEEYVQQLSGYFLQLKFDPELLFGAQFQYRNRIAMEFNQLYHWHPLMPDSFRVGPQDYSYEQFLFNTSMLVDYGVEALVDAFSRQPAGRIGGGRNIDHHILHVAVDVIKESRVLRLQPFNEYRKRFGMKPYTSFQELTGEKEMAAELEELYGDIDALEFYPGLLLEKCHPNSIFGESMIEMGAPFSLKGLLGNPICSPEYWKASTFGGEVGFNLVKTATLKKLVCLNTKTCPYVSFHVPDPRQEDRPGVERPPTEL
Method: (§1) Cell culture reagents were purchased from Euroclone (Milan, Italy). COX (ovine/human) inhibitor screening assay kit (Catalog No. 560131, Cayman Chemicals, Ann Arbor, MI, USA) was purchased from Sigma-Aldrich, Burlington, MA, USA. […] The other reagents were purchased from Sigma-Aldrich, Burlington, MA, USA.
(§2) The COX-1/2 inhibition screening experiments were carried out according to the manufacturer’s instructions. The plate was incubated for 60 min at r.t. under shaking and read with the Tecan Infinite 200 Microplate Reader at λ = 405 nm.
(§3) The graph between percent inhibition of the enzyme and corresponding concentration of the compound provided IC50 values for the probe compounds.

COX-2 = molecular target: T2, COX-2 (Homo sapiens, UniProt P35354); assay: COX-2 inhibition, COX (ovine/human) inhibitor screening assay kit; type: biochemical; details: for COX-2 inhibitory activity (in words): up to 50 µM final concentration
T2 construct: purchased Cayman Chemicals (bought through Sigma-Aldrich) 560131
T2 sequence (P35354 18-604): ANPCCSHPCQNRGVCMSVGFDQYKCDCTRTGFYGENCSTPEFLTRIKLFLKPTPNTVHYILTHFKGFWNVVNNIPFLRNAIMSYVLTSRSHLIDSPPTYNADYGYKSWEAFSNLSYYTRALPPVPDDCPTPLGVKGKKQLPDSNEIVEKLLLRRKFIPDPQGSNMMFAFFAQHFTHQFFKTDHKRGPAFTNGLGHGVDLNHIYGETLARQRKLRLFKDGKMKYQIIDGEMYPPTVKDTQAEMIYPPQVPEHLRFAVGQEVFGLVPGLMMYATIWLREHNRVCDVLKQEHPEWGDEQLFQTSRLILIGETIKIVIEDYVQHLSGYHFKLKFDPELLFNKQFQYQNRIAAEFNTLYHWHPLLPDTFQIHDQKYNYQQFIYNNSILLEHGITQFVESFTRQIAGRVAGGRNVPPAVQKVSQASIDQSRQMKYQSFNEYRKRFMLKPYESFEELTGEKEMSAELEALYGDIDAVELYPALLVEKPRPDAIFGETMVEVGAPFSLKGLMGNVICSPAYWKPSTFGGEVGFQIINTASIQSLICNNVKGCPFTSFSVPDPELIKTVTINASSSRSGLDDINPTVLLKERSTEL
Method: as §1, §2, §3

[1] = Fluorescence property measurements (absorption/emission spectra); type: physicochemical; design: Stokes Shift: unit not given here
Method: The λabs and λem, of the target compounds were measured in aqueous solution (phosphate-buffered saline solution, PBS) at the concentration of 10^−5 M (Table 1).
Fluorescence spectra of all target compounds were determined in PBS and EtOH solutions (Table 1) with a Tecan Infinite 200 Microplate Reader. In all experiments, the excitation and the emission bandpass were set at λ = 5 nm. The emission spectra were obtained from λ = 280 to 850 nm, with excitation set at the appropriate excitation wavelength. Absorption spectra were recorded with a Shimadzu UV-1800 spectrophotometer.

[2] = Solubility in PBS (remark); type: physicochemical
Source text: Despite of the solvent, the Stokes shift was very low with this fluorophore.

| Compound | IC50 (COX-1) | inhibition at 50 µM (COX-1) | IC50 (COX-2) | Stokes Shift ([1]; PBS solution, 10^−5 M) | λabs ([1]; PBS solution, 10^−5 M) | λem ([1]; PBS solution, 10^−5 M) | COX-1 inhibitory activity (in words) (COX-1) | COX-2 inhibitory activity (in words) (COX-2) | melting point | SI (selectivity index) (COX-1) | solubility in PBS [2] | Stokes Shift ([1]; ethanol (10^−5 M)) | λabs ([1]; ethanol (10^−5 M)) | λem ([1]; ethanol (10^−5 M)) |
| --- | --- | --- | --- | --- | --- | --- | --- | --- | --- | --- | --- | --- | --- | --- |
| COc1ccc(-c2noc(CC(=O)NCCCCNS(=O)(=O)c3cccc4c(N(C)C)cccc34)c2-c2ccc(OC)cc2)cc1 [Compound 3a, 2-[3,4-Bis(4-methoxyphenyl)isoxazol-5-yl]-N-{4-[(5-dimethylaminonaphthalene)-1-sulfonamido]butyl}acetamide] | > 50 µM | 45% | > 50 µM | 264 | 230 nm | 494 nm | almost inactive | almost inactive | 69 to 71 °C |  |  |  |  |  |
| CCN1/C(=C/C=C/C=C/C=C/C2=[N+](CCCCCC(=O)NCCCCNC(=O)Cc3onc(-c4ccc(OC)cc4)c3-c3ccc(OC)cc3)c3ccc4ccccc4c3C2(C)C)C(C)(C)c2c1ccc1ccccc21 (as salt: chloride) [23 (MSA14), 3-(6-(4-(2-(3,4-Bis(4-methoxyphenyl)isoxazole-5-yl)acetamido)butyl)amino-6-oxohexyl)-2-[7-(1,3-dihydro-1,1-dimethyl-3-ethyl-2H-benz[e]indolin-2-yl-idene)-1,3,5-heptatrienyl]-1,1-dimethyl-3-(6-carboxilato-hexyl)-1H-benz[e]indolium chloride] |  |  |  |  |  |  |  |  | 220 °C (dec.) |  |  |  |  |  |
| COc1ccc(-c2noc(CC(=O)Nc3ccc(NS(=O)(=O)c4cccc5c(N(C)C)cccc45)cc3)c2-c2ccc(OC)cc2)cc1 [Compound 3b, 2-[3,4-Bis(4-methoxyphenyl)isoxazol-5-yl]-N-{4-[(5-dimethylaminonaphthalene)-1-sulfonamido]phenyl}acetamide] | 0.05 µM | 44% | > 50 µM | 154 | 360 nm | 514 nm |  |  | 120 to 122 °C | > 1000 |  |  |  |  |
| COc1ccc(-c2noc(CC(=O)Nc3ccc(-c4ccc(NS(=O)(=O)c5cccc6c(N(C)C)cccc56)cc4)cc3)c2-c2ccc(OC)cc2)cc1 [Compound 3c, 2-[3,4-Bis(4-methoxyphenyl)isoxazol-5-yl]-N-{4-[(5-dimethylaminonaphthalene)-1-sulfonamido]biphenyl}acetamide] | 0.06 µM | 71% | > 50 µM | 217 | 287 nm | 504 nm |  |  | 240 to 241 °C | > 833 |  |  |  |  |
| COc1ccc(-c2noc(CC(=O)Nc3ccc(NC(=O)CCCCCCCCCCNS(=O)(=O)c4cccc5c(N(C)C)cccc45)cc3)c2-c2ccc(OC)cc2)cc1 [Compound 9] | 0.7 µM | 83% | > 50 µM | 222 | 274 nm | 496 nm |  |  | 140 to 143 °C | > 71 |  |  |  |  |
| COc1ccc(-c2noc(CC(=O)NCCCCCCNS(=O)(=O)c3cccc4c(N(C)C)cccc34)c2-c2ccc(OC)cc2)cc1 [Compound 6a] | 12 µM | 74% | > 50 µM |  |  |  |  |  | 66 to 69 °C | > 4 |  | 273 | 248 ^b nm | 521 ^b nm |
| COc1ccc(-c2noc(CC(=O)NCCCCCCCCCCCCNS(=O)(=O)c3cccc4c(N(C)C)cccc34)c2-c2ccc(OC)cc2)cc1 [Compound 6b, 2-[3,4-Bis(4-methoxyphenyl)-5-yl]-N-{4-[(5-dimethylaminonaphthalene)-1-sulfonamido]dodecyl}acetamide] | 0.1 µM | 71% | > 50 µM | 222 | 270 nm | 492 nm |  |  | 126 to 129 °C | > 500 |  |  |  |  |

Results, then the compound that gave them:

| IC50 (COX-1) | inhibition at 50 µM (COX-1) | IC50 (COX-2) | Stokes Shift ([1]; PBS solution, 10^−5 M) | λabs ([1]; PBS solution, 10^−5 M) | λem ([1]; PBS solution, 10^−5 M) | COX-1 inhibitory activity (in words) (COX-1) | COX-2 inhibitory activity (in words) (COX-2) | melting point | SI (selectivity index) (COX-1) | solubility in PBS [2] | Stokes Shift ([1]; ethanol (10^−5 M)) | λabs ([1]; ethanol (10^−5 M)) | λem ([1]; ethanol (10^−5 M)) | Compound |
| --- | --- | --- | --- | --- | --- | --- | --- | --- | --- | --- | --- | --- | --- | --- |
| > 50 µM | 28% | > 50 µM | 55 | 495 nm | 550 nm |  |  |  |  |  |  |  |  | COc1ccc(-c2noc(CC(=O)NCCCCCCCCCCCCNc3ccc([N+](=O)[O-])c4nonc34)c2-c2ccc(OC)cc2)cc1 [Compound 13c, 2-(3,4-Bis(4-methoxyphenyl)isoxazol-5-yl)-N-(12-((7-nitrobenzo[c][1,2,5]oxadiazol-4-yl)amino)dodecyl)acetamide] |
| > 50 µM | 26% | > 50 µM | 64 | 490 nm | 554 nm |  |  |  |  |  |  |  |  | COc1ccc(-c2noc(CC(=O)NCCCCCCNc3ccc([N+](=O)[O-])c4nonc34)c2-c2ccc(OC)cc2)cc1 [Compound 13b, 2-(3,4-Bis(4-methoxyphenyl)isoxazol-5-yl)-N-(6-((7-nitrobenzo[c][1,2,5]oxadiazol-4-yl)amino)hexyl)acetamide] |
| 0.08 µM | 51% | > 50 µM | 96 | 450 nm | 546 nm |  | almost inactive | 110 to 111 °C | > 625 |  |  |  |  | CCCN1C(=O)c2cccc3c(NCCCCCCNC(=O)Cc4onc(-c5ccc(OC)cc5)c4-c4ccc(OC)cc4)ccc(c23)C1=O [Compound 17a, 2-(3,4-Bis(4-methoxyphenyl)isoxazol-5-yl)-N-(6-((1,3-dioxo-2-propyl-2,3-dihydro-1H-benzo[de]isoquinolin-6-yl)amino)hexyl)acetamide] |
| 0.15 µM | 49% | > 50 µM |  |  |  |  | almost inactive | 112 to 115 °C | > 333 | low solubility | 92 | 450 ^b nm | 542 ^b nm | CCCN1C(=O)c2cccc3c(Nc4ccc(NC(=O)Cc5onc(-c6ccc(OC)cc6)c5-c5ccc(OC)cc5)cc4)ccc(c23)C1=O [Compound 17b, 2-(3,4-Bis(4-methoxyphenyl)isoxazol-5-yl)-N-(4-((1,3-dioxo-2-propyl-2,3-dihydro-1H-benzo[de]isoquinolin-6-yl)amino)phenyl)acetamide] |
| > 50 µM | 0% | > 50 µM | 82 | 482 nm | 564 nm |  |  | 165 °C (dec.) |  |  |  |  |  | COc1ccc(-c2noc(CC(=O)NCCCCNc3ccc([N+](=O)[O-])c4nonc34)c2-c2ccc(OC)cc2)cc1 [Compound 13a, 2-(3,4-Bis(4-methoxyphenyl)isoxazol-5-yl)-N-(4-((7-nitrobenzo[c][1,2,5]oxadiazol-4-yl)amino)butyl)acetamide] |

From paper PMC9230671, “Fluorochrome Selection for Imaging Intraoperative Ovarian Cancer Probes” (Pharmaceuticals, 2022)
